# Publication PMC10958225, “Therapeutic potential of orally applied KB-R7943 in streptozotocin-induced neuropathy in rats” (Heliyon, 2024)
# What was measured:
# Format in all cases: in vivo, rat
# [1] = system: STZ-treated rats with neuropathy; experiment: Forced swim test (FST); settings: 10 mg/kg p.o. once daily from day 28, test on day 41, 5-min test
# Procedure: (§1) On the day of diabetic state induction, rats were deprived of food for 6 h (from 8 a.m. to 2 p.m.). A single i.p. injection was applied with 55 mg/kg STZ in the ice-cold citrate buffer (0.1 M pH 4.4). The observed polydipsia, polyuria, reduced thriving with lower body weight, and poor coating appearance indirectly indicated the development of diabetes. On day 28, after 6 h of fasting, blood glucose was measured with an Xpress Statstrip Glucometer (Nova Biomedical Corporation, Waltham, MA, USA) from the tail vein. A cut-off value of blood glucose >13 mmol/l was adopted. […] Controls were once i.p. injected with ice-cold citrate buffer 0.1 M pH 4.4 only.
# (§2) Three animals per cage were housed for the experiment 2 (Fig. 3B). Rats were gently manipulated daily before undertaking the actual behavior tests. […] Body weight (BW), coat score (CS), CPT, R–S, and FT were evaluated on day 28th post-STZ, and after that, rats were distributed into the treatment groups as follows. • C-Veh – Controls, vehiculum treatment (n = 12) • NP-Veh – STZ-treated rats with neuropathy, vehiculum treatment (n = 12) • NP-KB-R7943 – 5 mg - STZ-treated rats, with neuropathy, KB-R7943 5 mg/kg treatment (n = 12) • NP-KB-R7943 – 10 mg – STZ-treated rats, with neuropathy, KB-R7943 10 mg/kg (n = 12) • NP-AMT – 10 mg - STZ-treated rats, with neuropathy, amitriptyline 10 mg/kg (n = 12). […]
# [2] = system: STZ-treated rats with neuropathy; experiment: 24-hour spontaneous physical activity; settings: 5 mg/kg p.o. once daily from day 28, from day 41
# Procedure: as §1, §2
# [3] = system: STZ-treated rats with neuropathy; experiment: Coat state score; settings: chronic p.o. treatment from day 28, day 42
# Procedure: as §1
# as §2, with “3B).” for “3B). Rats were gently manipulated daily before undertaking the actual behavior tests.”
# Coat state, water consumption, and body weight were evaluated weakly. […] Water consumption was measured per cage. […]
# [4] = system: STZ-treated rats with neuropathy; experiment: Formalin test (0.5% formalin)
# Procedure: as §1
# Three animals per cage were housed for the experiment 2 (Fig. 3B). Rats were gently manipulated daily before undertaking the actual behavior tests. One week after adaptation, the Randl-Stellito (R–S) test, cold plate test (CPT), and formalin tests (FT) were performed at baseline. After that, the diabetes model was made with 48 rats. Twelve animals served as controls. Body weight (BW), coat score (CS), CPT, R–S, and FT were evaluated on day 28th post-STZ, and after that, rats were distributed into the treatment groups as follows. • C-Veh – Controls, vehiculum treatment (n = 12) • NP-Veh – STZ-treated rats with neuropathy, vehiculum treatment (n = 12) • NP-KB-R7943 – 5 mg - STZ-treated rats, with neuropathy, KB-R7943 5 mg/kg treatment (n = 12) • NP-KB-R7943 – 10 mg – STZ-treated rats, with neuropathy, KB-R7943 10 mg/kg (n = 12) • NP-AMT – 10 mg - STZ-treated rats, with neuropathy, amitriptyline 10 mg/kg (n = 12).
# OraPlus was used as a vehiculum for gavage (16 gauge feeding tube 10 ml/kg) in all rats. KB-R7943 in two doses (5 or 10 mg/kg) or amitriptyline 10 mg/kg was applied once daily until day 49. Behavior tests were performed […] after the oral gavage of the corresponding day, in the afternoon, starting from 2 p.m. […] On day 41, an FST was performed, and at 2 p.m., rats were placed individually for 24 h to assess spontaneous physical activity. After that, on day 42, the same battery of the tests as on day 28 were reassessed.
# The formalin test was performed 1 h after the R–S test to decrease the interaction with the mechanical stimulus from the previous test. For the same reason, the left hind paws were injected. A needle (U-100 Insulin Syringe, Beckton and Dickinson, Dublin, Ireland) was used. A low-dose intraplantar injection of formalin 50 mcl 0.5% was done, and rats were placed in individual transparent cases for observation. Two independent observers measured the time spent licking or biting the injected paw, and the first (0–5 min) and the second post-injection phase (20–30 min) were reported in sec.
smiles,measurement,setting,value
"N=C(N)SCCc1ccc(OCc2ccc([N+](=O)[O-])cc2)cc1 [KB-R7943, [(2-{4-[(4-nitrophenyl)methoxy]phenyl}ethyl)sulfanyl]methanimidamide]",immobility time in FST,[1],131.67 ± 29.80 s
same,24-h spontaneous physical activity,[2],1705.92 ± 237.74 beam breaks
same,effect on coat score,[3],ameliorated
same,effect on formalin test first phase (0–5 min),"[4]; 5 mg/kg p.o. once daily, vs. 10 mg/kg groups",weaker effect
same,effect on formalin test first phase (0–5 min),"[4]; 10 mg/kg p.o. once daily, vs. NP-Veh",attenuated
same,effect on formalin test second phase (20–30 min),"[4]; amitriptyline 10 mg/kg, KB-R7943 5 and 10 mg/kg p.o. once daily, vs. NPveh, dose-dependent",attenuated
